In patent US20210179683A1, “METHOD OF RESPONSE PREDICTION FOR BCL2 FAMILY PROTEIN TARGETING DRUG” (Proteina Co., Ltd., priority 2019, published 2021):
One block for each compound: values may come before it.

Key:
[1] = molecular target: T1, BCL2-BIM interaction (Homo sapiens, UniProt P10415); assay: BCL2-BIM PPI intensity with inhibitor added together with BIM-GFP to pulled-down BCL2; type: binding; settings: various concentrations of inhibitor added with BIM-GFP; BCL2 from HL60
Description: Excess lysate was washed off with a washing buffer (HEPES 50 mM NaCl 150 mM glycerol 1% GDN 0.03%). Then, protein-protein interactions were measured as follows:
This Example can be used to measure direct relationship between targeting inhibitors used and the BCL2 family proteins and related signaling proteins. To this end, BCL2 or MCL1 protein was used as a first protein while BIM-GFP protein served as a first protein-interacting protein.

[2] = test system: BCL2; assay: BCL2 expression level in drug-treated cells; settings: OCI-LY3 cells, 24 hours
[3] = molecular target: T2, BCL2-BAD interaction (Homo sapiens, UniProt P10415); assay: PPI between endogenous BCL2 of drug-treated cells and exogenous BAD-GFP (single-molecule pull-down, TIRF); type: cell-based; settings: 24 hours
T2 construct: endogenous in cells; host or cells: HL60, OCI-LY3
Description: (§1) Blood cancer cells (The Korean Cell Line Bank and ATCC; HL-60 (CVCL_0002), OCI-LY3 (CVCL_8800)), Ramos (CVCL_0597), U937, THP1, and SUDHL8) and the blood cancer cell pellets from buffy coats of patients were each suspended in a lysis buffer (HEPES 50 mM NaCl 150 mM Glycerol 10% (w/v) GDN (Digitonin) 1% (w/v) with 2% (w/v) phosphatase inhibitor cocktail ⅔ (P5726, P0044)) and vortexed three times at regular intervals of 10 min. After 30 min, the lysis buffer containing the pellet homogenate was centrifuged at 15,000 g for 10 min. The supernatant thus formed was used as an analysis lysate to be applied to a substrate in subsequent experiments. […]
The cell lysate, prepared in Example 1.2, containing the probe-labeled first protein-interacting protein was added to the substrate prepared in Example 1.3. […] Then, protein-protein interactions were measured as follows:
The substrate was fixedly mounted on a total internal reflection fluorescence and imaged to obtain data for protein-protein interaction (binding). […]
(§2) For example, the method proposed in this Example can quantitatively measure changes in PPI intensity and complex formation after and before treatment with BCL2-targeting inhibitors. […]

[4] = test system: leukocyte count; assay: Leukocyte count of treated blood cancer patients; type: in vivo, human
Description: The method provided herein can lead to a method for tracing molecular states of a patient with time. In greater detail, the interaction analysis of bone marrow or blood specimens collected at various stages from a blood cancer patient can be used to provide information helpful in determining BCL2 family protein-dependence and whether to administer a corresponding targeted anticancer agent. […] Afterwards, a cord blood stem cell transplantation brought about complete remission in the patient. In addition, time series diagnosis was performed for patient 2 in the same manner as for patient 1 (FIG. 35). In patient 2, the signaling pathway of the BCL2 family protein could not be controlled by prescribing the FLT3 targeting inhibitor, either. […] From the results obtained above, it is understood that quizartinib prescription cannot bring about any clinical effect.

[5] = molecular target: T1, BCL2-BIM interaction; assay: BCL2-BIM PPI in bone marrow or whole blood specimens of blood cancer patients over the course of treatment; type: in vivo; parameters: PPI counts between BCL2, MCL1, or BCL-XL, all endogenous to the samples from patient 1, and exogenous BIM; from tissue; host or cells: bone marrow and whole blood of blood cancer patients; settings: patient 1; bone marrow after quizartinib, whole blood after venetoclax and LDAC
Description: The method provided herein can lead to a method for tracing molecular states of a patient with time. In greater detail, the interaction analysis of bone marrow or blood specimens collected at various stages from a blood cancer patient can be used to provide information helpful in determining BCL2 family protein-dependence and whether to administer a corresponding targeted anticancer agent. […] Afterwards, a cord blood stem cell transplantation brought about complete remission in the patient.
In addition, time series diagnosis was performed for patient 2 in the same manner as for patient 1 (FIG. 35). In patient 2, the signaling pathway of the BCL2 family protein could not be controlled by prescribing the FLT3 targeting inhibitor, either. […] From the results obtained above, it is understood that quizartinib prescription cannot bring about any clinical effect.

[6] = test system: BAX (N-terminus exposed); assay: Detection of N-terminus exposed (active conformation) BAX in GDN lysates of drug-treated cells; type: cell-based, human; settings: Staurosporine for one hour or venetoclax for 24 hours; lysis buffer containing GDN
Description: (§3) In order to achieve this Example, a specimen may be prepared by artificially inducing apoptosis.

[7] = test system: BAX; assay: BAX level after forced N-terminus exposure with Triton X-100 in lysates of drug-treated cells; type: cell-based, human; settings: Staurosporine for one hour or venetoclax for 24 hours; lysis buffer containing Triton X-100
Description: as §3

[8] = molecular target: T3, MCL1-NOXA interaction (Homo sapiens, UniProt Q07820); assay: PPI between endogenous MCL1 of drug-treated cells and exogenous GFP-NOXA; type: cell-based; settings: HL60 or OCI-LY3 cells, 100 nM, 24 hours, vs DMSO
T3 construct: endogenous in cells; host or cells: HL60, OCI-LY3
Description: Excess lysate was washed off with a washing buffer (HEPES 50 mM NaCl 150 mM glycerol 1% GDN 0.03%). Then, protein-protein interactions were measured as follows: […]

[9] = molecular target: T4, BCL-XL (Homo sapiens, UniProt Q07817); assay: PPI of endogenous BCL-XL of drug-treated cells with exogenous BAD; type: cell-based; settings: HL60 or OCI-LY3 cells, 100 nM, 24 hours, vs DMSO
T4 construct: endogenous in cells; host or cells: HL60, OCI-LY3
Description: as §1
The cell lysate, prepared in Example 1.2, containing the probe-labeled first protein-interacting protein was added to the substrate prepared in Example 1.3. […] Then, protein-protein interactions were measured as follows: […]
as §2

T1 sequence (P10415 whole entry): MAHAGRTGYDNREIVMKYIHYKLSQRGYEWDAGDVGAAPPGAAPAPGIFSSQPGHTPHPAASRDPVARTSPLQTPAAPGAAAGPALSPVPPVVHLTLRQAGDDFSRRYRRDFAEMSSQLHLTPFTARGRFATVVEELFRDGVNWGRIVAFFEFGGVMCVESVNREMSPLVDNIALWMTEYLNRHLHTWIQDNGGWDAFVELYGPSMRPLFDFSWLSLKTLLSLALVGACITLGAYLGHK
T2 sequence (P10415 whole entry): as above
T4 sequence (Q07817 whole entry): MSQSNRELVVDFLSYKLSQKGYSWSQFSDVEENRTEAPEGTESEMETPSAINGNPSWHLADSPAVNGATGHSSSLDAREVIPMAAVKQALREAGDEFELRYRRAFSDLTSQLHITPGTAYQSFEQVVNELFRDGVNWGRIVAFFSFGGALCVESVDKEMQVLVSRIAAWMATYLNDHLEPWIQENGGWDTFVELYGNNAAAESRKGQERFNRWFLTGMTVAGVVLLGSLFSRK
T3 sequence (Q07820 whole entry): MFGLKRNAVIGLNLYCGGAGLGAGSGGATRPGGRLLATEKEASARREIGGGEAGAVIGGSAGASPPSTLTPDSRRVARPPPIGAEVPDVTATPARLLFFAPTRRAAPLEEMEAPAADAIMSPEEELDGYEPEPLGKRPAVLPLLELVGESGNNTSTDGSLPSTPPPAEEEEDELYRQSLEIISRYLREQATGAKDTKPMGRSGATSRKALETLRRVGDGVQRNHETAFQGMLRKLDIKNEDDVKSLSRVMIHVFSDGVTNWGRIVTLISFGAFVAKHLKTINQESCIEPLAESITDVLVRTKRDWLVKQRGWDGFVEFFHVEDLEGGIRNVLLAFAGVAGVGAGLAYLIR

- BCL2-BIM PPI intensity [1]: not affected
- BCL2-BAD interaction (PPI) ([3]; OCI-LY3 cells, vs non-treated group): no influences
Structure (SMILES): Cc1c2c(nn1C)CSCc1cc(n(C)n1)CSc1cc(c3ccccc3c1)OCCCc1c(C(=O)O)n(C)c3c-2c(Cl)ccc13 [AZD5991]
- expression level of BCL2 [2]: does not incite a significant change

- BCL2-BIM PPI [5]: drastic increase
Structure (SMILES): CC(C)(C)c1cc(NC(=O)Nc2ccc(-c3cn4c(n3)sc3cc(OCCN5CCOCC5)ccc34)cc2)no1 [quizartinib]
- leukocyte count ([4]; patient 1): drastic rise
- leukocyte count ([4]; patient 2): about three folds increased

Structure (SMILES): CN[C@@H]1C[C@H]2O[C@@](C)([C@@H]1OC)n1c3ccccc3c3c4c(c5c6ccccc6n2c5c31)C(=O)NC4 [Staurosporine]
- N-terminus exposed BAX signals [6]: increased signals
- N-terminus-exposed BAX after artificial exposure with Triton X-100 [7]: constant values

- MCL1-NOXA PPI [8]: selectively increase
- BCL-XL PPI intensity [9]: responsive to none
- BCL2-BAD PPI intensity ([3]; HL60 and OCI-LY3 cells, 100 nM, vs DMSO): did not change
Structure (SMILES): CO[C@H]1/C=C/C[C@H](C)[C@@H](C)S(=O)(=O)NC(=O)c2ccc3c(c2)N(C[C@@H]2CC[C@H]21)C[C@@]1(CCCc2cc(Cl)ccc21)CO3 [AMG176]
